Source: patent US20090053192A1, “TISSUE-NONSPECIFIC ALKALINE PHOSPHATASE (TNAP) ACTIVATORS AND USES THEREOF” (BURNHAM INSTITUTE FOR MEDICAL RESEARCH, priority 2007, published 2009)

Target: T1, TNAP (Homo sapiens, UniProt P05186)
T1 sequence (P05186 18-502 limits assumed): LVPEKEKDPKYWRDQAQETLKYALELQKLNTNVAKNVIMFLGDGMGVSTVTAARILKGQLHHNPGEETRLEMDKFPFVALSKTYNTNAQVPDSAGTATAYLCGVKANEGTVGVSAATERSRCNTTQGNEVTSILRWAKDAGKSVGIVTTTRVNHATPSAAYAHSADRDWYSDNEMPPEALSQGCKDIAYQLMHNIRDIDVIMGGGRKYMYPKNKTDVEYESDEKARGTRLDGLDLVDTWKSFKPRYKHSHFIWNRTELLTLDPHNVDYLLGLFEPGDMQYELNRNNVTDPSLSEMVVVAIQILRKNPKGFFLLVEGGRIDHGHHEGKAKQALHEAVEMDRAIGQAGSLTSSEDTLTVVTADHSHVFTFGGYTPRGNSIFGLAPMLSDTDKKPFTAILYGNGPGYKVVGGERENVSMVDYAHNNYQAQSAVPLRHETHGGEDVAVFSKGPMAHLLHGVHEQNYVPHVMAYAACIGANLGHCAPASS
Test: optimized TNAP activation assay, CAPS buffer pH 9.8, CDP-Star luminescence
Format: biochemical
Conditions: TNAP 1/800, 25 μM CDP-Star, pH 9.8
Method: The activity of TNAP (1/800) was measured in 50 mM CAPS, pH 9.8, containing 1 mM MgCl2, 20 uM ZnCl2 and varied concentrations of CDP-Star. The luminescence signal was obtained using 384-well white small-volume plates (Greiner 784075) on a PE Envision plate reader. Experimental data were analyzed using the Michaelis-Menten equation.
The activity of TNAP (1/800) was measured in 50 mM CAPS, pH 9.8, containing 1 mM MgCl2, 20 μM ZnCl2 and 25 μM CDP-Star® in the presence of serially diluted DEA, pH adjusted to 9.8. The luminescence signal, obtained using 384-well white small-volume plate (Greiner 784075) on a PE Envision plate reader, was fitted to 4-parameter sigmoidal equation. The best-fit curve is shown as a solid line.
The luminescent assay was further optimized to ensure its maximum sensitivity to compounds activating TNAP. […] This assay can provide a more accurate measure of phosphatase activity, as opposed to transphosphorylation, activity that might be more relevant to in vivo conditions. The previously utilized assay was performed in the presence DEA at a concentration of CDP-star equal to its Km value. However, the appropriate concentration of the components was needed for the new buffer. TNAP activity vs. its concentration was tested as a function of TNAP concentrations (FIG. 7).
It was observed that TNAP activity was linearly dependent over an extended range of TNAP concentrations. A 1/800 concentration of TNAP was used for further work; this concentration is 1315-fold above the limit of detection of the assay. To ensure that substrate concentration is correctly adjusted in the new assay, TNAP activity was tested in the presence of varied CDP-star® concentrations (FIG. 8). It was decided to fix the concentration of CDP-star® at 25 uM (˜Km) to provide enough sensitivity even for compounds competitive with the CDP-star® substrate. In the next experiment, the activation of TNAP was tested with DEA (FIG. 9).
600 mM DEA (pH 9.8) was chosen as the positive control for TNAP activation screening. […]

Row | Maximal activation, higher activity than in the absence of DEA [fold] | SMILES
1 | 9.4 | OCCNCCO [DEA, diethanolamine]

Same assay, conditions: TNAP 1/800, 50 mM CAPS pH 9.8, Michaelis-Menten

Row | SMILES | Km [µM] | Vmax [RLU]
2 | COC1(c2ccc(Cl)c(OP(=O)([O-])[O-])c2)OOC12C1CC3CC2CC(Cl)(C3)C1.[Na+].[Na+] (centres unmarked) [CDP-star, Disodium 2-chloro-5-(4-methoxyspiro{1,2-dioxetane-3,2′-(5′-chloro)-ricyclo[3.3.1.13,7]decan}-4-yl)-1-phenyl phosphate] | 21.9 ± 3.4 | 10300±408

Target: T1, TNAP
Test: luminescent CDP-star-based TNAP assay, MLSMR screen (PubChem AID 518)
Conditions: Table 1

Row | TNAP Activation Factor | SMILES
3 | 2.0 | O=C(CN1C(=O)CCC1=O)Nc1nc(-c2ccccn2)cs1 [drawing 29, 2-(2,5-dioxopyrrolidin-1-yl)-N-[4-(pyridine-2-yl)thiazol-2-yl]acetamide]

Same assay, conditions: Table 2

Row | TNAP Activation Factor | SMILES
4 | 2.0 | CC(C)n1c(NCc2nc3ccccc3n2C)nc2ccccc21 [drawing 45, 1-isopropyl-N-[(1-methyl-1H-benzo[d]imidazol-2-yl)methyl]-1H-benzo[d]imidazol-2-amine]
5 | 1.9 | Nc1[nH]nc2nc(NCc3ccccc3)c3c(c12)CCN(Cc1ccccc1)C3 [drawing 47, N^5,7-dibenzyl-6,7,8,9-tetrahydro-2H-pyrazolo[3,4-c][2,7]napythyridine-1,5-diamine]

Same assay, conditions: Table 3

Row | TNAP Activation Factor | SMILES
6 | 1.6 | OCCN(CCO)c1nc(N2CCCCC2)c2nc(N(CCO)CCO)nc(N3CCCCC3)c2n1 [2,2′,2″,2′″-[4,8-di(piperidin-1-yl)pyrimido[5,4-d]pyrimidine-2,6-diyl]bis(azanetriyl)tetraethanol]
7 | 1.5 | c1nc(-c2[nH]nc3c2CCC3)n2nc(C3CCCCC3)sc12 [6-cyclohexyl-3-(2,4,5,6-tetrahydrocyclopenta[c]pyrazol-3-yl)-[1,2,4]triazole[3,4-b][1,3,4]thiadiazole]
8 | 4.3 | N=c1c2c(-c3ccccc3)c(-c3ccccc3)n(Cc3ccccc3)c2ncn1CCCn1ccnc1 [drawing 64, 3-[3-(1H-imidazol-1-yl)propyl]-7-benzyl-5,6-diphenyl-3H-pyrrolo[2,3-d]pyrimidin-4(7H)-imine]
9 | 2.2 | Cc1cc(C2N=C(N)Nc3nc4ccccc4n32)c(C)n1-c1ccccc1Cl (centres unmarked) [drawing 66]
10 | 1.8 | Cc1nn2c(O)cc(C(C)(C)C)nc2c1-c1ccccc1 [drawing 67, 5-tert-butyl-2-methyl-3-phenylpyrazolo[1,5-a]pyrimidin-7-ol]
11 | 1.7 | Oc1c(C(c2ccccn2)N2CCOCC2)ccc2cccnc12 (centres unmarked) [drawing 68, 7-[morpholino(pyridin-2-yl)methyl]quinolin-8-ol]
12 | 1.5 | OCCCN1c2ccccc2Nc2nnc(-c3ccccc3)cc21 [drawing 70, 3-(3-phenylpyridazino[3,4-b]quinoxalin-5(10H)-yl)propan-1-ol]
13 | 1.5 | NC1=NC(c2cn(-c3ccccc3)nc2-c2cccs2)n2c(nc3ccccc32)N1 (centres unmarked) [drawing 72]
14 | 1.9 | OCCN1CCOCCN(CCO)CCN(CCO)CC1 [drawing 74, 2,2′,2″-(1-oxa-4,7,10-triazacyclododecane-4,7,10-triyl)ethanol]
15 | 1.9 | COc1ccc(CCNC(=O)c2cc(-c3ccccc3O)[nH]n2)cc1OC [drawing 75, N-(3,4-dimethoxyphenethyl)-5-(2-hydroxyphenyl)-1H-pyrazole-3-carboxamide]
16 | 1.7 | O=C(CN(Cc1ccco1)C(=O)CNS(=O)(=O)c1ccc(F)cc1)NCc1ccc(F)cc1 [drawing 76, N-[2-(4-fluorobenzylamino)-2-oxoethyl]-2-(4-fluorphenylsulfonamido)-N-(furan-2-ylmethyl)acetamide]

Same assay, conditions: calculated as (100-X)/100, where X is % inhibition; luminescence

Row | TNAP Activation Factor | SMILES
17 | 4.3 | N=c1c2c(-c3ccccc3)c(-c3ccccc3)n(Cc3ccccc3)c2ncn1CCCn1ccnc1 [Compound 3]
18 | 2.8 | CCN(CC)c1ccc2cc(-c3nc4ccccc4n3C)c(=O)oc2c1 [Compound 4]
19 | 2.2 | Cc1cc(C2N=C(N)Nc3nc4ccccc4n32)c(C)n1-c1ccccc1Cl (centres unmarked) [Compound 6]
20 | 2.0 | CC(C)n1c(NCc2nc3ccccc3n2C)nc2ccccc21 [Compound 7]
21 | 2.0 | O=C(CN1C(=O)CCC1=O)Nc1nc(-c2ccccn2)cs1 [Compound 9]
22 | 1.9 | OCCN1CCOCCN(CCO)CCN(CCO)CC1 [Compound 10]
23 | 1.9 | Nc1[nH]nc2nc(NCc3ccccc3)c3c(c12)CCN(Cc1ccccc1)C3 [Compound 11]
24 | 1.9 | COc1ccc(CCNC(=O)c2cc(-c3ccccc3O)[nH]n2)cc1OC [Compound 12]
25 | 1.8 | Cc1nn2c(O)cc(C(C)(C)C)nc2c1-c1ccccc1 [Compound 13]
26 | 1.7 | Oc1c(C(c2ccccn2)N2CCOCC2)ccc2cccnc12 (centres unmarked) [Compound 15]
27 | 1.7 | O=C(CN(Cc1ccco1)C(=O)CNS(=O)(=O)c1ccc(F)cc1)NCc1ccc(F)cc1 [Compound 16]
28 | 1.7 | Clc1ccc(COC(Cn2ccnc2)c2ccc(Cl)cc2Cl)c(Cl)c1 (centres unmarked) [Compound 17]
29 | 1.6 | OCCN(CCO)c1cc2c(N3CCCCC3)nc(N(CCO)CCO)nc2c(N2CCCCC2)n1 [Compound 18]
30 | 1.6 | O=C(Nc1cccc(OC(F)(F)F)c1)c1ccc(Br)o1 [Compound 19]
31 | 1.6 | NC1=NC2(CCC(c3ccccc3)CC2)n2c(nc3ccccc32)N1 (centres unmarked) [Compound 20]
32 | 1.6 | O=S(=O)(CCc1ncc(-c2ccccc2)o1)c1ccc2ccccc2c1 [Compound 21]
33 | 1.6 | CCc1ccc(-c2nc(CN3CCC(C(=O)NCCN(CC)c4ccccc4)CC3)c(C)o2)cc1 [Compound 22]
34 | 1.6 | COc1cccc(N(C(=O)c2cc[nH]n2)C2(C(=O)Nc3c(C)cccc3C)CCCCC2)c1 [Compound 23]
35 | 1.5 | OCCCN1c2ccccc2Nc2nnc(-c3ccccc3)cc21 [Compound 25]
36 | 1.5 | C1CCC(c2nn3c(-c4[nH]nc5c4CCC5)nnc3s2)CC1 [Compound 26]
37 | 1.5 | NC1=NC(c2cn(-c3ccccc3)nc2-c2cccs2)n2c(nc3ccccc32)N1 (centres unmarked) [Compound 28]
